Laboratory results from paper PMC7006542, “Characterization of a Plastoglobule-Localized SOUL4 Heme-Binding Protein in Arabidopsis thaliana” (Frontiers in Plant Science, 2020).

Target: T1, recombinant maize (Zea mays) CK2 a-subunit (Biaffin) (Zea mays, UniProt P28523)
T1 construct: gene ACK2; commercial recombinant catalytic alpha subunit (Biaffin)
Assay: in vitro kinase assay, SDS-PAGE and phosphorimager
Format: biochemical
Conditions: protein substrate recombinant AtSOUL4 (3 µg); 25 mM Tris-HCl pH 8.0, 5 mM MgCl2, 1 mM DTT, 25 °C, 30 min; labelled compound; mere turnover

T1 sequence (P28523 whole entry): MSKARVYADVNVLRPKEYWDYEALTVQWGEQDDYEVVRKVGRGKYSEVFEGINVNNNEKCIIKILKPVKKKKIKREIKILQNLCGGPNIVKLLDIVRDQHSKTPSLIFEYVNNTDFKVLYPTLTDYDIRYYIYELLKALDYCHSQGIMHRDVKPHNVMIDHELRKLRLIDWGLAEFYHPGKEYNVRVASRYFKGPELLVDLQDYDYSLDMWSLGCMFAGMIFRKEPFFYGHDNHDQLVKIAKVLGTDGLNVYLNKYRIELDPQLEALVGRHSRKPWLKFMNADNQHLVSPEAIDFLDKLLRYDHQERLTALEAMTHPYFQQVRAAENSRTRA

Compound: Nc1ncnc2c1ncn2[C@@H]1O[C@H](COP(=O)(O)OP(=O)(O)OP(=O)(O)O)[C@@H](O)[C@H]1O [ATP]
- in vitro kinase assay, SDS-PAGE and phosphorimager: revealing phosphorylation of SOUL4 both by recombinant maize CKII and stromal fraction
